The results in this text go back to patent US11318190B2, “Methods and compositions for treating liver disease” (UNITED STATES GOVERNMENT AS REPRESENTED BY THE DEPARTMENT …, priority 2017, dated 2022).

Assay [1] deals with human hepatic stellate cells (hHSC). As to the kind of experiment: hHSC activation by cholangiocyte supernatants from treated mice (qPCR). Format: cell-based. On the procedure: In vitro experiments were performed in human hepatic stellate cells (hHSC) that were purchased from ScienCell Research Laboratories (Carlsbad, Calif.) that were maintained in standard conditions.
[…] Activation of hHSCs was determined by qPCR for FN-1, TGF-β1, α-SMA, and collagen type-1a (Kennedy, L L et al., Knockout of microRNA-21 reduces biliary hyperplasia and liver fibrosis in cholestatic bile duct ligated mice, Lab Invest 96:1256-1267 (2016)).

The next assay has as its system WT mice. The assay can be described thus: WT mice treated 1 wk with secretin: TGF-β1, fibrosis, cellular senescence. Format: in vivo, mouse. As to the method:
WT mice were treated for 1 wk with saline or secretin (Sct; 2.5 nmoles/kg body weight per day) before collecting cholangiocytes, HSCs and cholangiocyte supernatants. The levels of TGF-β1 were measured in short-term (6-hour) cultures of cholangiocytes by ELISA kits. Subsequently, we measured: (i) liver fibrosis by immunofluorescence for Col1a1 in liver sections and real-time PCR for TGF-β1, TFG-β1R, Col1a1, α-SMA and Fn1 in cholangiocytes and HSCs; and (ii) cellular senescence by immunofluorescence in liver sections for p16 and real-time PCR for p16 and p21 in cholangiocytes and HSC.

The next assay relates to HHSteCs. The assay can be described thus: HHSteCs incubated with biliary/IMCL supernatants with/without LY2109761, or with TGF-β1 (Example 2). Format: cell-based, human. On the procedure:
Biliary supernatants were obtained from normal and BDL WT mice and Sct^−/−, SR^−/− and Sct^−/−/SR^−/− BDL mice as well as normal WT mice treated with saline or secretin. HHSteCs were incubated with the aforementioned biliary supernatants (containing different levels of TGF-β1) for 24 hr (in the absence or presence of LY2109761) before measuring the expression of senescence and fibrosis genes by real-time PCR. Furthermore, HHSteCs were incubated with the supernatant of large IMCLs treated for 0.2% bovine serum albumin (basal) or secretin (10 nM) with/without LY2109761 for 6 hr before measuring the mRNA expression of fibrosis and senescence genes. To provide direct evidence that TGF-β1 directly modulates fibrosis and senescence of IMCLs and HHSteCs, these cells were stimulated with TGF-β1 (10 nM) for 24 hr before measuring the expression of PCNA as well as fibrosis and senescence genes by real-time PCR.

A further assay deals with IMCLs. The assay can be described thus: IMCLs treated with Sct with/without microRNA 125b mimic precursor, TGF-β1 or r-VEGFA (Example 4). The format is cell-based, mouse. The following applies: Sct 10 nM, 12 hr. On the procedure:
Cholangiocytes were obtained by immunoaffinity separation, Cholangiocytes were obtained by immunoaffinity separation as described herein above, using a monoclonal antibody (a gift from Dr. R. Faris, Brown University, Providence, R.I.) that is expressed by all intrahepatic cholangiocytes. Cell viability (greater than 97%) was assessed by trypan blue exclusion. HSCs were isolated by LCM as described herein above. Frozen liver sections (n=3, 10 μm thick) were incubated overnight with an antibody against desmin (marker of stellate cells). Following staining, desmin-positive HSCs were dissected from the slides by a LCM system Leica LMD7000 (Buffalo Grove, Ill.) and collected into a PCR tube before being analyzed. The RNA from HSCs was extracted with the Arcturus PicoPure RNA isolation kit (Thermo Fisher Scientific CO, Mountain View, Calif.). The in vitro studies were performed in our immortalized murine biliary cell lines (IMCLs) and human hepatic stellate cell lines (HHSteCs, Sciencell, Carlsbad, USA).
In biliary supernatants, the levels of TGF-β1 were measured by ELISA kits. […] We also evaluated by immunofluorescence the expression of VEGFR-2 in cell smears of IMCLs and HHSteCs. […]

Where [2] appears, read: cholangiocyte supernatant from secretin-treated WT mice, 24 hr.
[3] abbreviates: supernatant of large IMCLs after secretin 10 nM, 6 hr.

For secretin [Sct], the “expression of FN-1, TGF-β1, α-SMA and collagen type-1a in hHSCs” value in assay [1] (cholangiocyte supernatants from treated dnTGF-βRII mice 12 wks) was “further enhanced”. Further, the “expression of FN-1, TGF-β1, α-SMA and collagen type-1a in hHSCs” value in assay [1] (cholangiocyte supernatants from treated dnTGF-βRII mice 34 wks) was “reduced”. The “TGF-β1 levels in cholangiocyte supernatant” value in the assay with WT mice (secretin 2.5 nmoles/kg/day 1 wk vs saline) is reported as “enhanced levels”. Besides, in the assay on WT mice (secretin 1 wk), the “biliary immunoreactivity of Collagen I and mRNA of TGF-β1, TFG-β1R, Col1a1, α-SMA, Fn1 in cholangiocytes and HSCs” value is “increased”; the “p16 immunoreactivity in liver sections, p16 and p21 expression in cholangiocytes” value is recorded as “enhanced”. Further, in the assay on WT mice (secretin 1 wk vs saline), the “p16 and p21 mRNA expression in isolated HSCs” value was “reduced”. In the assay on HHSteCs (setting [2]), the “expression of fibrosis genes in HHSteCs” value was “increased expression” and the “expression of senescence genes in HHSteCs” value is “reduced expression”. Moreover, in the assay with HHSteCs (setting [3]), the “expression of senescence genes of HHSteCs” value is reported as “decreases” and the “fibrosis gene expression of HHSteCs” value was “increases”. For the same substance, the “TGF-β1 mRNA expression of IMCLs and TGF-β1 levels in IMCLs supernatant” value in the assay with IMCLs was “increased”.
